Legend:
Format in all cases: in vivo
Sunflower [1] = assay: Test C preemergence; settings: Rate 250 g/ha, visual evaluation after 12 to 14 days
[2] = system: giant foxtail (Setaria faberii); assay: Test C preemergence
Method in brief: (§1)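 Test chemicals, formulated in a non-phytotoxic solvent mixture with surfactant, were applied preemergence to planted seeds or postemergence to plants 2 to 18 cm tall (1- to 4-leaf stage). After 12 to 14 days in a greenhouse, injury was visually rated against untreated controls on a 0–100 scale.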

Sunflower [3] = assay: Test C preemergence
[4] = system: Surinam grass (Brachiaria decumbens); assay: Test C preemergence
Method in brief: as §1

[5] = system: common ragweed (Ambrosia elatior); assay: Test C preemergence
Method in brief: as §1

[6] = system: velvetleaf (Abutilon theophrasti); assay: Test C preemergence
Method in brief: as §1

[7] = system: goosegrass (Eleusine indica); assay: Test C preemergence
Method in brief: as §1

[8] = system: cocklebur (Xanthium strumarium); assay: Test C preemergence
Method in brief: as §1

[9] = system: crabgrass (Digitaria sanguinalis); assay: Test C preemergence
Method in brief: as §1

[10] = system: bermudagrass (Cynodon dactylon); assay: Test C preemergence
Method in brief: as §1

[11] = system: morningglory (Ipomoea hederacea); assay: Test C preemergence
Method in brief: as §1

[12] = system: giant foxtail (Setaria faberii); assay: Test B preemergence
Method in brief: (§2)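 Seeds were planted and sprayed preemergence with test chemical in a non-phytotoxic solvent mixture containing surfactant; postemergence plants (2 to 18 cm, 1- to 4-leaf stage) received the same formulation. Greenhouse hold 13 to 15 days, then visual rating versus untreated controls on a 0–100 scale (0 no effect, 100 complete control).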

[13] = system: Surinam grass (Brachiaria decumbens); assay: Test B preemergence
Method in brief: as §2

[14] = system: barnyardgrass (Echinochloa crus-galli); assay: Test B preemergence
Method in brief: as §2

corn (Zea mays) = assay: Test B preemergence
Method in brief: as §2

[15] = system: velvetleaf (Abutilon theophrasti); assay: Test B preemergence
Method in brief: as §2

[16] = system: pigweed (Amaranthus retroflexus); assay: Test B preemergence
Method in brief: as §2

rice (Oryza saliva) = assay: Test B preemergence
Method in brief: as §2

[17] = system: cocklebur (Xanthium strumarium); assay: Test B preemergence
Method in brief: as §2

[18] = system: crabgrass (Digitaria sanguinalis); assay: Test B preemergence
Method in brief: as §2

[19] = system: lambsquarters (Chenopodium album); assay: Test B preemergence
Method in brief: as §2

[20] = system: morning glory (Ipomoea hederacea); assay: Test B preemergence
Method in brief: as §2

[21] = Preemergence, Rate 500 g/ha, scale 0 to 100
[22] = Rate 62 g/ha, scale 0 to 100, 0 no effect, 100 complete control
[23] = preemergence, Rate 250 g/ha, visual evaluation after 12 to 14 days
[24] = preemergence, Rate 125 g/ha, scale 0 to 100, 0 no effect, 100 complete control
[25] = Preemergence, Rate 500 g/ha, scale 0 to 100, 0 no effect, 100 complete control
[26] = preemergence, Rate 125 g/ha, scale of 0 to 100 where 0 is no effect and 100 is complete control, 13 to 15 days

## O=C1C(n2ccc(C3CCCCC3)n2)SCN1c1cccc(OC(F)(F)F)c1 (stereo not drawn) [Compound 50]
Sunflower [1]
  Plant response rating (0 to 100), Sunflower: 30
[2]; [21]
  Plant response rating, Foxtail, Giant: 100
[2]; [22]
  Plant response rating, Foxtail, Giant: 60
[2]; [23]
  Plant response rating (0 to 100), Foxtail, Giant: 20
[2]; [24]
  Plant response rating, Foxtail, Giant: 0
Sunflower [3]; [22]
  Plant response rating, Sunflower: 20
Sunflower [3]; Rate 500 g/ha, scale 0 to 100
  Plant response rating, Sunflower: 60
[4]; [21]
  Plant response rating, Surinam grass: 50
[4]; [22]
  Plant response rating, Surinam grass: 20
[4]; [23]
  Plant response rating (0 to 100), Surinam grass: 50
[4]; [24]
  Plant response rating, Surinam grass: 30
[5]; [21]
  Plant response rating, Ragweed, Common: 40
[5]; [22]
  Plant response rating, Ragweed, Common: 20
[5]; [23]
  Plant response rating (0 to 100), Ragweed, Common: 40
[5]; [24]
  Plant response rating, Ragweed, Common: 30
[6]; [21]
  Plant response rating, Velvetleaf: 0
[6]; [22]
  Plant response rating, Velvetleaf: 0
[6]; [23]
  Plant response rating (0 to 100), Velvetleaf: 0
[6]; [24]
  Plant response rating, Velvetleaf: 0
[7]; [21]
  Plant response rating, Goosegrass: 100
[7]; [22]
  Plant response rating, Goosegrass: 80
[7]; [23]
  Plant response rating (0 to 100), Goosegrass: 100
[7]; [24]
  Plant response rating, Goosegrass: 90
[8]; [21]
  Plant response rating, Cocklebur: 0
[8]; [23]
  Plant response rating (0 to 100), Cocklebur: 0
[8]; [24]
  Plant response rating, Cocklebur: 0
[9]; [21]
  Plant response rating, Crabgrass: 100
[9]; [22]
  Plant response rating, Crabgrass: 100
[9]; [23]
  Plant response rating (0 to 100), Crabgrass: 100
[9]; [24]
  Plant response rating, Crabgrass: 100
[10]; [21]
  Plant response rating, Bermudagrass: 100
[10]; [22]
  Plant response rating, Bermudagrass: 100
[10]; [23]
  Plant response rating (0 to 100 where 0 is no effect and 100 is complete control), Bermudagrass: 100
[10]; [24]
  Plant response rating, Bermudagrass: 100
[11]; [21]
  Plant response rating, Morningglory: 30
[11]; [22]
  Plant response rating, Morningglory: 20
[11]; [23]
  Plant response rating (0 to 100), Morningglory: 30
[11]; [24]
  Plant response rating, Morningglory: 30
[12]; [25]
  Plant response rating, Foxtail, Giant: 100
[12]; [26]
  Plant response rating, Foxtail, Giant: 20
[13]; [25]
  Plant response rating, Surinam grass: 30
[13]; [26]
  Plant response rating, Surinam grass: 0
[14]; [25]
  Plant response rating, Barnyardgrass: 90
[14]; [26]
  Plant response rating, Barnyardgrass: 0
Corn (Zea mays); [25]
  Plant response rating, Corn: 0
Corn (Zea mays); [26]
  Plant response rating, Corn: 0
[15]; [25]
  Plant response rating, Velvetleaf: 100
[15]; [26]
  Plant response rating, Velvetleaf: 100
[16]; [25]
  Plant response rating, Pigweed: 0
[16]; [26]
  Plant response rating, Pigweed: 0
Rice (Oryza saliva); [25]
  Plant response rating, Rice: 0
Rice (Oryza saliva); [26]
  Plant response rating, Rice: 0
[17]; [25]
  Plant response rating, Cocklebur: 0
[17]; [26]
  Plant response rating, Cocklebur: 0
[18]; [25]
  Plant response rating, Crabgrass: 100
[18]; [26]
  Plant response rating, Crabgrass: 100
[19]; [25]
  Plant response rating, Lambsquarters: 90
[19]; [26]
  Plant response rating, Lambsquarters: 0
[20]; [25]
  Plant response rating, Morningglory: 0
[20]; [26]
  Plant response rating, Morningglory: 0
